Laboratory results taken from PubChem BioAssay (NCI).
Where “and” joins values, the source holds several entries; their conditions need not be identical. Identical values can stand only once.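 Five compound concentrations were applied to cells in 96-well plates for 48 hours; endpoints were derived by simple linear interpolation of the resulting dose-response curve. GI50: concentration for 50% inhibition of growth. TGI marks complete inhibition of growth.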

The molecules below were run on NCI-H226 lung (assay: DTP human tumour cell line panel, 48 h).
With `O=C(CN1CCN(c2cc3c(cc2F)c(=O)c(C(=O)N/N=C/c2ccccc2O)cn3C2CC2)CC1)N/N=C\c1ccccc1O` the GI50 was 3.71 µM and the TGI was over 100 µM. In the case of `C=C(CNCCO)[C@@H]1CC[C@]2(CO)CC[C@]3(C)[C@H](CC[C@@H]4[C@@]5(C)CCC(N)C(C)(C)[C@@H]5CC[C@]43C)[C@@H]12` (stereo not given in full), the GI50 is reported as 11 µM and the TGI is reported as 27.9 µM. `Nc1cc2nc3ccccc3sc-2cc1=O` showed a GI50 of 4.62 µM and a TGI of 28.4 µM. In the case of `CCN(CC)CC(C(=O)Nc1c(C)cccc1C)/C(C)=N\NC(=O)C[N+](C)(C)C` (stereo not given), the TGI is reported as over 100 µM. For `CC1=C(C(=O)Nc2ccccc2C)C(c2ccco2)C(C(=O)Nc2ccccc2C)=C(C)N1C`, the TGI was over 100 µM. For `COc1cc2nc(-c3ccc(C(F)(F)F)cc3)cc(OCCCN3CCC(O)CC3)c2cc1OC`, the GI50 was 1.59 µM and the TGI was 5.37 µM. In the case of `CC(=O)OC(C)C(=O)C1c2cccc(O)c2C(=O)c2c(O)cc(C)cc21` (stereo not given), the TGI is reported as 1.03 µM. Molecule `CC(=O)C(CN(C(C)C)C(C)C)C(c1ccccc1)c1c(O)c2ccccc2oc1=O` (stereo not given) has a TGI of over 100 µM. `O=C1NNC(=O)c2ccccc2SSc2ccccc2C(=O)NNC(=O)c2ccccc2SSc2ccccc21` showed a TGI of over 50 µM. `NC(CCc1nc(-c2ccc(Cl)cc2)cs1)C(=O)O` (stereo not given) was tested, and the TGI was over 100 µM. `COc1ccc(-n2/c(=N/C(=S)N(C)C)ss/c2=N\C(=S)N(C)C)cc1` was tested, and the TGI was over 100 µM. `COc1cc(C(=O)/C=C/c2sc(Cl)nc2Cl)cc(OC)c1OC` showed a GI50 of 2.4 µM and a TGI of 6.31 µM. Molecule `COc1cc2nc(C)nc(N[C@H](C)c3cc(N)cc(C(F)(F)F)c3)c2cc1O[C@H]1CCOC1` has a GI50 of 16.9 µM and a TGI of 38.8 µM. With `O=C1c2ccccc2C(=O)c2sc(Nc3cccc(Cl)c3)nc21` the TGI was 6.25 µM. For `Fc1ccc(Nc2ncnc3ccc(-c4cnc5[nH]ccc5c4)cc23)cc1Cl`, the GI50 was 1.99 µM and the TGI was 4.97 µM. `CN(C)CCCNC1=C(Cl)C(=O)c2ccccc2C1=O` was tested, and the GI50 was 5.38 µM and the TGI was 10.6 µM. `O=C(Nc1ccc(F)cc1F)c1cc(I)ccc1O` showed a GI50 of 2.46 µM and a TGI of 15.8 µM. Work on `CCOc1ccccc1-n1c(CN2CCN(C(=O)COc3ccc(CNCCCCCCN4C5CCCC4CC(OC(=O)Nc4cc(C)ccc4OC)C5)cc3)CC2)nc2ccccc2c1=O` (stereo not given) yielded a GI50 of 1.88 µM and a TGI of 3.91 µM. For `CC1(C)COC(c2ccc(C(F)(F)F)cc2C(O)c2ccc3ccccc3c2)=N1` (stereo not given), the GI50 was over 10 µM and the TGI was over 100 µM. `COc1ccc(NC(=O)c2cc(OC)cc(OC)c2)cc1` showed a TGI of over 100 µM. `CC1(C)OC(=O)C(=Cc2ccc(O)cc2)C(=O)O1` was tested, and the TGI was over 100 µM. For `COc1ccc(/C=C\c2cc(OC)c3c(c2)OCO3)c(O)c1O`, the TGI was 45.9 µM. `CC[C@@]12CCCN3CC[C@]4(c5cccc(OC)c5N(C(C)=O)[C@@H]4CC1)[C@H]32` gave a TGI of over 100 µM.

The molecules below were run on UACC-257 melanoma (assay: DTP human tumour cell line panel, 48 h).
Molecule `O=C(CN1CCN(c2cc3c(cc2F)c(=O)c(C(=O)N/N=C/c2ccccc2O)cn3C2CC2)CC1)N/N=C\c1ccccc1O` has a GI50 of 0.912 µM and a TGI of over 100 µM. Work on `C=C(CNCCO)[C@@H]1CC[C@]2(CO)CC[C@]3(C)[C@H](CC[C@@H]4[C@@]5(C)CCC(N)C(C)(C)[C@@H]5CC[C@]43C)[C@@H]12` (stereo not given in full) yielded a GI50 of 1.8 µM and a TGI of 3.23 µM. `Nc1cc2nc3ccccc3sc-2cc1=O` gave a GI50 of 2.3 µM and a TGI of 5.83 µM. Work on `CCN(CC)CC(C(=O)Nc1c(C)cccc1C)/C(C)=N\NC(=O)C[N+](C)(C)C` (stereo not given) yielded a TGI of over 100 µM. For `CC1=C(C(=O)Nc2ccccc2C)C(c2ccco2)C(C(=O)Nc2ccccc2C)=C(C)N1C`, the TGI was over 100 µM. Molecule `COc1cc2nc(-c3ccc(C(F)(F)F)cc3)cc(OCCCN3CCC(O)CC3)c2cc1OC` has a GI50 of 2.28 µM and a TGI of 6.5 µM. `CC(=O)OC(C)C(=O)C1c2cccc(O)c2C(=O)c2c(O)cc(C)cc21` (stereo not given) was tested, and the TGI was 1.4 µM. `CC(=O)C(CN(C(C)C)C(C)C)C(c1ccccc1)c1c(O)c2ccccc2oc1=O` (stereo not given) was tested, and the TGI was over 100 µM. In the case of `O=C1NNC(=O)c2ccccc2SSc2ccccc2C(=O)NNC(=O)c2ccccc2SSc2ccccc21`, the GI50 is reported as 45.2 µM and the TGI is reported as 50 µM and > 100 µM. For `NC(CCc1nc(-c2ccc(Cl)cc2)cs1)C(=O)O` (stereo not given), the TGI was over 100 µM. Work on `COc1ccc(-n2/c(=N/C(=S)N(C)C)ss/c2=N\C(=S)N(C)C)cc1` yielded a TGI of over 100 µM. Molecule `COc1cc(C(=O)/C=C/c2sc(Cl)nc2Cl)cc(OC)c1OC` has a GI50 of 2.01 µM and a TGI of 4.23 µM. Work on `COc1cc2nc(C)nc(N[C@H](C)c3cc(N)cc(C(F)(F)F)c3)c2cc1O[C@H]1CCOC1` yielded a GI50 of 16.1 µM and a TGI of 30.5 µM. `O=C1c2ccccc2C(=O)c2sc(Nc3cccc(Cl)c3)nc21` showed a TGI of 2.99 µM. Molecule `Fc1ccc(Nc2ncnc3ccc(-c4cnc5[nH]ccc5c4)cc23)cc1Cl` has a GI50 of 13.5 µM and a TGI of over 100 µM. Molecule `CN(C)CCCNC1=C(Cl)C(=O)c2ccccc2C1=O` has a GI50 of 1.82 µM and a TGI of 3.25 µM. For `O=C(Nc1ccc(F)cc1F)c1cc(I)ccc1O`, the GI50 was 2.09 µM and the TGI was 7.09 µM. Molecule `CCOc1ccccc1-n1c(CN2CCN(C(=O)COc3ccc(CNCCCCCCN4C5CCCC4CC(OC(=O)Nc4cc(C)ccc4OC)C5)cc3)CC2)nc2ccccc2c1=O` (stereo not given) has a GI50 of 1.88 µM and a TGI of 3.45 µM. Work on `CC1(C)COC(c2ccc(C(F)(F)F)cc2C(O)c2ccc3ccccc3c2)=N1` (stereo not given) yielded a GI50 of over 100 µM and a TGI of over 100 µM. Molecule `COc1ccc(NC(=O)c2cc(OC)cc(OC)c2)cc1` has a TGI of over 100 µM. `CC1(C)OC(=O)C(=Cc2ccc(O)cc2)C(=O)O1` showed a TGI of over 100 µM. Work on `COc1ccc(/C=C\c2cc(OC)c3c(c2)OCO3)c(O)c1O` yielded a TGI of 53.4 µM. In the case of `CC[C@@]12CCCN3CC[C@]4(c5cccc(OC)c5N(C(C)=O)[C@@H]4CC1)[C@H]32`, the TGI is reported as over 100 µM.

Each molecule was assayed on HL-60(TB) leukemia (assay: DTP human tumour cell line panel, 48 h).
`O=C(CN1CCN(c2cc3c(cc2F)c(=O)c(C(=O)N/N=C/c2ccccc2O)cn3C2CC2)CC1)N/N=C\c1ccccc1O` was tested, and the GI50 was 0.36 µM. With `C=C(CNCCO)[C@@H]1CC[C@]2(CO)CC[C@]3(C)[C@H](CC[C@@H]4[C@@]5(C)CCC(N)C(C)(C)[C@@H]5CC[C@]43C)[C@@H]12` (stereo not given in full) the GI50 was 1.89 µM and the TGI was 4.1 µM. For `Nc1cc2nc3ccccc3sc-2cc1=O`, the GI50 was 2.07 µM and the TGI was 5.78 µM. For `CCN(CC)CC(C(=O)Nc1c(C)cccc1C)/C(C)=N\NC(=O)C[N+](C)(C)C` (stereo not given), the TGI was over 100 µM. With `CC1=C(C(=O)Nc2ccccc2C)C(c2ccco2)C(C(=O)Nc2ccccc2C)=C(C)N1C` the TGI was over 100 µM. With `COc1cc2nc(-c3ccc(C(F)(F)F)cc3)cc(OCCCN3CCC(O)CC3)c2cc1OC` the GI50 was 13.9 µM and the TGI was 31.9 µM. For `CC(=O)OC(C)C(=O)C1c2cccc(O)c2C(=O)c2c(O)cc(C)cc21` (stereo not given), the TGI was 0.847 µM. For `CC(=O)C(CN(C(C)C)C(C)C)C(c1ccccc1)c1c(O)c2ccccc2oc1=O` (stereo not given), the TGI was over 100 µM. In the case of `O=C1NNC(=O)c2ccccc2SSc2ccccc2C(=O)NNC(=O)c2ccccc2SSc2ccccc21`, the TGI is reported as 23.8 µM. With `NC(CCc1nc(-c2ccc(Cl)cc2)cs1)C(=O)O` (stereo not given) the TGI was over 100 µM. With `COc1ccc(-n2/c(=N/C(=S)N(C)C)ss/c2=N\C(=S)N(C)C)cc1` the TGI was over 100 µM. `COc1cc(C(=O)/C=C/c2sc(Cl)nc2Cl)cc(OC)c1OC` gave a GI50 of 1.82 µM and a TGI of 4.45 µM.
